# Patent US10618869B2, “Oligo-benzamide compounds and their use” (The Board of Regents of the University of Texas System, priority 2010, dated 2020)
# “Also recorded” adds a separate entry of the source.
# Experiments:
# Assay type in all cases: cell-based
# AR-PELP1 interaction = experiment: DHT-induced AR-PELP1 co-immunoprecipitation in PCa cells
# Excerpt: FIG. 6. Effect of D1 and D2 on DHT induced AR-PELP1 co-immunoprecipitation in LNCaP cells.
# FIGS. 7A-C. Effect of D1 and D2 on DHT induced AR-PELP1 co-immunoprecipitation in LNCaP cells. (FIG. 7A) Model depicts the proposed role for D2 in disrupting the interaction between AR and NR Box proteins such as Hsp27 and PELP1. (FIG. 7B) Effect of increasing concentration of D2 on complex formation between AR and NR Box proteins such as Hsp27 and PELP1, as shown for immunoprecipitation with AR (top panel) and with PELP1 (bottom panel). Input lysates are shown at the bottom. (FIG. 7C) Rescue of D2-induced suppression of AR-PELP1 complex formation: Following transient transfection with increasing concentrations of AR (left panel) or increasing concentration of PELP1 (right panel), LnCAP cells were treated with 10 nM DHT for 24 hours following preincubation with D2 or control D1. Extracts were immunoprecipitated with AR and immunoblotted with PELP1, AR or importin.
# FIG. 6 provides confirmation that D2 was directed against the LXXLL (SEQ ID NO: 1) motif and was capable of blocking AR and PELP1 interaction in vivo was obtained from coimmunoprecipitation experiments in LnCaP PCa cells.
# D2 was also able to block the DHT- and E2-induced interaction of AR with PELP1 in LAPC4, C4-2, VCAP and CWR22v1 cells. […] The ability of D2 to block AR-PELP1 interaction could be overcome by transient over-expression of PELP1 in a dose-dependent manner.
# [1] = test system: DHT-regulated transcripts; experiment: DHT-regulated transcripts, Illumina platform, LNCaP cells; conditions: of the 341 transcripts significantly upregulated by DHT
# Procedure: FIG. 8. Effect of D2 on DHT-induced transcription: RNA from LNCaP cells untreated or treated with DHT in the absence and presence of D2 were evaluated by the Illumina platform for DHT-regulated transcripts. […] Expression levels of selected genes are shown in the right panel, including AR-regulated genes and those involved in cell proliferation.
# FIG. 8 confirms these findings by QPCR experiment evaluating the effect of D1 and D2 on DHT-induced TMPRSS and PSA gene expression at the RNA level in LNCaP cells (bottom left panel) and by western blot analyses as evaluated by the effect of D1 and D2 on the expression of PSA, androgen receptor and actin in LAPC4 cells at the protein level. […] Confirmation of these findings were obtained by QPCR and western blot analyses.
# [2] = test system: AR binding on PSA promoter; experiment: ChIP assay of AR binding on PSA promoter
# Excerpt: FIG. 9. […] This effect of D2 could be rescued by overexpression of AR (bottom left panel) or PELP1 (bottom right panel).
# At the protein level, D2, but not D1, was able to block DHT-induced expression of PSA protein. Again, the suppresion of DHT-induced transcription from an ARE could be overcome by overexpression of either AR or PELP1 ([…]). Overexpression of PELP1 was able to rescue the D2-mediated suppression of DHT-induced transcription nearly back to baseline.
smiles,measurement,setting,value
COC(=O)c1ccc(NC(=O)c2ccc([N+](=O)[O-])c(OCC(C)C)c2)c(OCC(C)C)c1 [D2],stability of AR or PELP1,AR-PELP1 interaction,did not adversely affect
same,DHT- and E2-induced interaction of AR with PELP1,"AR-PELP1 interaction; LAPC4, C4-2, VCAP and CWR22v1 cells",able to block
same,DHT-induced physical interaction of AR and PELP1,"AR-PELP1 interaction; LnCaP cells, preincubation with 100 nM",blocked
same,"AR-PELP1 interaction, dose dependence","AR-PELP1 interaction; increasing concentration, FIG. 7",blocked AR-PELP1 interaction in a dose-dependent manner
same,DHT-upregulated genes reduced back to baseline,[1],219 genes
same,DHT-induced AR binding on PSA promoter (ChIP),[2],blocked DHT-induced AR binding; also recorded: blocked AR binding to its cognate DNA sequence
